{"source": "paper doi:10.1101/2020.02.26.964882v3", "about": "(biorxiv, 2020)", "target": "COVID-19 virus M^pro (Severe acute respiratory syndrome coronavirus 2, UniProt P0DTD1)", "test": "enzymatic inhibition assay", "format": "biochemical", "data": [{"smiles": "CN(C)CCCSc1ccccc1NC(=O)/C=C/c1ccccc1", "note": "[cinanserin]", "values": [{"measurement": "IC50", "result": 125, "unit": "µM"}]}]}
